The record followed here is patent US7601746B2 (Shionogi & Co., Ltd., priority 2003, dated 2009).

A word on the EC50: it is the midpoint of the concentration-response curve.

The target of the first experiment is T1, human TPO receptor (hTPOR) (Homo sapiens, UniProt P40238).
T1 construct: expressed in transfected cells; host or cells: BaF-B03 (murine IL-3 dependent cell line)
T1 sequence (P40238 26-635): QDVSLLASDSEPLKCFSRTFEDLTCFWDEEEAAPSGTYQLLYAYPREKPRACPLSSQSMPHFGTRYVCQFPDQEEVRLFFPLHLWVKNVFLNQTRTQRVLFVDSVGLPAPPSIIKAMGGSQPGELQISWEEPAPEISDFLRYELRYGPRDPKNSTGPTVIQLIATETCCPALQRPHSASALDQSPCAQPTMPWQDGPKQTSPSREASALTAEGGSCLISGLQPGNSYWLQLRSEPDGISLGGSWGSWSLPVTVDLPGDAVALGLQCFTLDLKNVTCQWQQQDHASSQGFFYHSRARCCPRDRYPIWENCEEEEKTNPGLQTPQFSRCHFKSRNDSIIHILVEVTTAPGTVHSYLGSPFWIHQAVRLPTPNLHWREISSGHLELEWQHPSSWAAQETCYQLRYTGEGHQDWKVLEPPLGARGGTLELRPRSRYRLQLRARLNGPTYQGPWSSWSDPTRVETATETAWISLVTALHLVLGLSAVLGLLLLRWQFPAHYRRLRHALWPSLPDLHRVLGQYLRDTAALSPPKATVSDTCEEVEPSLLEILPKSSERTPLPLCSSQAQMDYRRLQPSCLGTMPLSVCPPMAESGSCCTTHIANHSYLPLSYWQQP
Description: Thrombopoietic activity: proliferation of TPO dependent BaF/hTPOR cells (WST-1, absorbance at 450 nm). The class given is cell-based. The settings on record: 20 h + 4 h WST-1, ED50 = half concentration of the concentration showing the maximum thrombopoietic activity, Table 1. In short, it runs like this: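 Proliferation read-out: WST-1 absorbance at 450 nm after 20 h compound exposure plus 4 h reagent, using IL-3-deprived BaF/hTPOR cells (5×10^4 per well) dependent on human TPO receptor signalling. ED50 defined as half the concentration producing maximal activity.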
(In general: Formazan colour is commonly taken as a measure of viable cells.)
As for `CCCCCCCCCCC(OC)c1cccc(-c2csc(NC(=O)c3cc(Cl)c(/C=C(\C)C(=O)O)c(Cl)c3)n2)c1OC` (stereo not drawn) [Compound B1060, (E)-3-(2,6-dichloro-4-{4-[2-methyloxy-3-(1-methyloxy-undecyl)phenyl]thiazol-2-ylcarbamoyl}phenyl)-2-methylacrylic acid], the concentration giving a half-maximal response (EC50) amounted to 3.9 nM.

Turning to `CCc1cccc2c1OCc1sc(NC(=O)c3cc(Cl)c(/C=C(\C)C(=O)O)c(Cl)c3)nc1-2` [Compound A1310, (E)-3-[2,6-dichloro-4-(6-ethyl-4H-chromeno[4,3-d]thiazol-2-ylcabamoyl)phenyl]-2-methylacrylic acid], the EC50 was determined as 12.3 nM.

Take `CCCCCCCOc1cccc(-c2csc(NC(=O)c3cc(Cl)c(/C=C(\OC)C(=O)O)c(Cl)c3)n2)c1OC` [Compound B2001, (Z)-3-{2,6-dichloro-4-[4-(3-heptyloxy-2-methyloxyphenyl)thiazol-2-ylcarbamoyl]phenyl}-2-methyloxyacrylic acid]: the EC50 is 19.4 nM.

As to `CCCCOC(c1cccc(-c2csc(NC(=O)c3cc(F)c(/C=C(\C)C(=O)O)c(F)c3)n2)c1OC)C(C)(C)C` (stereo not drawn) [Compound B425, (E)-3-(4-{4-[3-(1-butyloxy-2,2-dimethylpropyl)-2-methyloxyphenyl]thiazol-2-ylcarbamoyl}-2,6-difluorophenyl)-2-methylacrylic acid], the half-maximal effective concentration (EC50) was 2.01 nM.

Turning to `CCCCC(OCC)c1cccc(-c2csc(NC(=O)c3cc(F)c(C=C(C)C(=O)O)c(F)c3)n2)c1F` (stereo not drawn) [Compound B27, 3-(2,6-difluoro-4-{4-[3-(1-ethyloxypentyl)-2-fluorophenyl]thiazol-2-ylcarbamoyl}phenyl)-2-methylacrylic acid], the EC50 turned out to be 0.75 nM.

On to `CCCC(OCC)c1cccc(-c2csc(NC(=O)c3cc(F)c(C=C(C)C(=O)O)c(F)c3)n2)c1F` (stereo not drawn) [Compound B24, 3-(2,6-difluoro-4-{4-[3-(1-ethyloxybutyl)-2-fluorophenyl]thiazol-2-ylcarbamoyl}phenyl)-2-methylacrylic acid], for which the 50% effective concentration (EC50) is 1.97 nM.

With `CCC(CC)COCCCc1cccc(-c2csc(NC(=O)c3cc(F)c(C=C(C)C(=O)O)c(F)c3)n2)c1F` [Compound B43, 3-[2,6-difluoro-4-(4-{3-[3-(2-ethylbutyloxy)propyl]-2-fluorophenyl}thiazol-2-ylcarbamoyl}phenyl)-2-methylacrylic acid], the EC50 amounted to 1.65 nM.

Regarding `CCCCCCCCCCC(OC)c1cccc(-c2csc(NC(=O)c3cc(Cl)c(/C=C(\OC)C(=O)O)c(Cl)c3)n2)c1OC` (stereo not drawn) [Compound B1438, (Z)-3-(2,6-dichloro-4-{4-[2-methyloxy-3-(1-methyloxyundecyl)phenyl]thiazol-2-ylcarbamoyl}phenyl)-2-methyloxyacrylic acid], the EC50 amounted to 6.3 nM.

Turning to `CCCCOCCCC(OCCCC)c1cccc(-c2csc(NC(=O)c3cc(Cl)c(C=C(C)C(=O)O)c(Cl)c3)n2)c1F` (stereo not drawn) [Compound B100, 3-(4-{4-[3-(1,4-dibutyloxybutyl)-2-fluorophenyl]thiazol-2-ylcarbamoyl)-2,6-dichlorophenyl]-2-methylacrylic acid], the EC50 was found to be 0.68 nM.

As for `COc1c(COCCC(C)C)cccc1-c1csc(NC(=O)c2cc(F)c(/C=C(\C)C(=O)O)c(F)c2)n1` [Compound B2027, (E)-3-(2,6-difluoro-4-{4-[2-methyloxy-3-(3-methylbutyloxymethyl)phenyl]thiazol-2-ylcarbamoyl}phenyl)-2-methylacrylic acid], the concentration giving a half-maximal response (EC50) amounted to 12.6 nM.

On to `CCC(CC)OCc1cccc(-c2csc(NC(=O)c3cc(F)c(/C=C(\C)C(=O)O)c(F)c3)n2)c1OC` [Compound B1890, (E)-3-(4-{4-[3-(1-ethylpropyloxymethyl)-2-methyloxyphenyl]thiazol-2-ylcarbamoyl}-2,6-difluorophenyl)-2-methylacrylic acid], for which the EC50 worked out at 18.1 nM.

Turning to `CCCCCCCCCC(OC)c1cccc(-c2csc(NC(=O)c3cc(F)c(/C=C(\C)C(=O)O)c(F)c3)n2)c1OCC` (stereo not drawn) [Compound B2099, (E)-3-(4-{4-[2-ethyloxy-3-(1-methyloxydecyl)phenyl]thiazol-2-ylcarbamoyl}-2,6-difluorophenyl)-2-methylacrylic acid], the EC50 was found to be 2.91 nM.

On to `CCCCCCCCOc1cccc(-c2csc(NC(=O)c3cc(Cl)c(/C=C(\C)C(=O)O)c(Cl)c3)n2)c1OC` [Compound B2005, (E)-3-{2,6-dichloro-4-[4-(2-methyloxy-3-octyloxyphenyl)thiazol-2-ylcarbamoyl]phenyl}-2-methylacrylic acid], for which the concentration for a half-maximal effect (EC50) was found to be 10.3 nM.

For `CCCCOCCCc1cccc(-c2csc(NC(=O)c3cc(Cl)c(/C=C(\C)C(=O)O)c(Cl)c3)n2)c1OC` [Compound B1124, (E)-3-(4-{4-[3-(3-butyloxypropyl)-2-methyloxyphenyl]thiazol-2-ylcarbamoyl}-2,6-dichlorophenyl)-2-methylacrylic acid], the EC50 came out at 15.8 nM.

For `CCCCCOCCCc1cccc(-c2csc(NC(=O)c3cc(Cl)c(C=C(C)C(=O)O)c(Cl)c3)n2)c1F` [Compound B90], the EC50 was 1.15 nM.

`CCCOCCCc1cccc2c1OCc1sc(NC(=O)c3cc(Cl)c(/C=C(\C)C(=O)O)c(Cl)c3)nc1-2` [Compound A1123, (E)-3-{2,6-dichloro-4-[6-(3-propyloxypropyl)-4H-chromeno[4,3-d]thiazol-2-ylcabamoyl]phenyl}-2-methylacrylic acid]: the EC50 amounted to 7.27 nM.

For the compound `CCCOCCCC(OC)c1cccc(-c2csc(NC(=O)c3cc(F)c(/C=C(\C)C(=O)O)c(F)c3)n2)c1OC` (stereo not drawn) [Compound B1799, (E)-3-(2,6-difluoro-4-{4-[2-methyloxy-3-(1-methyloxy-4-propyloxybutyl)phenyl]thiazol-2-ylcarbamoyl}phenyl)-2-methylacrylic acid], the half-maximal effective concentration (EC50) came out at 17.3 nM.

`COc1c(COCC(C)(C)C)cccc1-c1csc(NC(=O)c2cc(Cl)c(/C=C(\C)C(=O)O)c(Cl)c2)n1` [Compound B2021, (E)-3-(2,6-dichloro-4-{4-[3-(2,2-dimethylpropyloxymethyl)-2-methyloxyphenyl]thiazol-2-ylcarbamoyl}phenyl)-2-methylacrylic acid]: the EC50 stood at 6.09 nM.

In the case of `CCCCCCc1cccc2c1OCc1sc(NC(=O)c3cc(F)c(/C=C(\C)C(=O)O)c(F)c3)nc1-2` [Compound A1314, (E)-3-[2,6-difluoro-4-(6-hexyl-4H-chromeno[4,3-d]thiazol-2-ylcabamoyl)phenyl]-2-methylacrylic acid], the concentration giving a half-maximal response (EC50) worked out at 12.5 nM.

Turning to `CCCOCCCc1cccc2c1CCc1sc(NC(=O)c3cc(F)c(C=C(C)C(=O)O)c(F)c3)nc1-2` [Compound A9, 3-{2,6-difluoro-4-[4,5-dihydro-6-(3-n-propyloxypropyl)naphto[1,2-d]thiazol-2-ylcabamoyl]phenyl}-2-methylacrylic acid], the EC50 amounted to 3 nM.

For the compound `CCCCOC(CCC)c1cccc(-c2csc(NC(=O)c3cc(F)c(C=C(C)C(=O)O)c(F)c3)n2)c1F` (stereo not drawn) [Compound B35, 3-(4-{4-[3-(1-n-butyloxybutyl)-2-fluorophenyl]thiazol-2-ylcarbamoyl}-2,6-difluorophenyl)-2-methylacrylic acid], the EC50 stood at 0.77 nM.

With `CC(=Cc1c(Cl)cc(C(=O)Nc2nc(-c3cccc(CCCOCCC4CCCC4)c3F)cs2)cc1Cl)C(=O)O` [Compound B89, 3-[2,6-dichloro-4-(4-[3-[3-(2-cyclopentylethyloxy)propyl]-2-fluorophenyl]thiazol-2-ylcarbamoyl)phenyl]-2-methylacrylic acid], the EC50 is 1.51 nM.

Turning to `CCCCCOC(CCC)c1cccc(-c2csc(NC(=O)c3cc(Cl)c(C=C(C)C(=O)O)c(Cl)c3)n2)c1F` (stereo not drawn) [Compound B80, 3-(2,6-dichloro-4-{4-[2-fluoro-3-(1-n-pentyloxybutyl)phenyl]thiazol-2-ylcarbamoyl}phenyl)-2-methylacrylic acid], the concentration giving a half-maximal response (EC50) was 0.7 nM.

With `CCCCCCCCCC(OC)c1cccc(-c2csc(NC(=O)c3cc(Cl)c(/C=C(\OC)C(=O)O)c(Cl)c3)n2)c1OC` (stereo not drawn) [Compound B1437, (Z)-3-(2,6-dichloro-4-{4-[2-methyloxy-3-(1-methyloxydecyl)phenyl]thiazol-2-ylcarbamoyl}phenyl)-2-methyloxyacrylic acid], the EC50 was determined as 6.5 nM.

The experiment is the same for the next values; noted with them: 20 h + 4 h WST-1, ED50 = half concentration of the concentration showing the maximum thrombopoietic activity, Table 2.
Consider `CO/C(=C\c1c(Cl)cc(C(=O)Nc2nc(-c3cccc(OCCC4CCCCC4)c3OC)cs2)cc1Cl)C(=O)O` [Compound B1919], for which the EC50 stood at 27.9 nM.

As to `CO/C(=C\c1c(F)cc(C(=O)Nc2nc(-c3cccc(C(OC)C(C)(C)C)c3F)c(OC)s2)cc1F)C(=O)O` (stereo not drawn) [Compound B1908, (Z)-3-(2,6-difluoro-4-{4-[2-fluoro-3-(1-methyloxy-2,2-dimethylpropyl)phenyl]-5-methyloxythiazol-2-ylcarbamoyl}phenyl)-2-methyloxyacrylic acid], the EC50 was 26.3 nM.

As to `COc1c(CCOCCCCF)cccc1-c1csc(NC(=O)c2cc(Cl)c(/C=C(\C)C(=O)O)c(Cl)c2)n1` [Compound B2003, (E)-3-[2,6-dichloro-4-(4-{3-[2-(4-fluorobutyloxy)ethyl]-2-methyloxyphenyl}thiazol-2-ylcarbamoyl)phenyl]-2-methylacrylic acid], the EC50 came to 22.7 nM.
